Laboratory results: publication PMC10910545, “The crystal structure of mycothiol disulfide reductase (Mtr) provides mechanistic insight into the specific low-molecular-weight thiol reductase activity of Actinobacteria” (Acta Crystallographica. Section D, Structural Biology, 2024)

Legend:
[1] = biological target: T1, Mtr Re (mycothiol disulfide reductase) (Rhodococcus erythropolis, UniProt C0ZY75); assay: X-ray crystal structure, […] A; format: binding; settings: copurified cofactor, one FAD per monomer; redox-active Cys39-Cys44 on si face
T1 construct: full-length, 458 residues, pET-22b(+) NdeI/XhoI, E. coli BL21(DE3); homodimer about 100 kDa

[2] = biological target: T2, Mtr Ms (mycothiol disulfide reductase) (Mycolicibacterium smegmatis, UniProt A0QVL0); assay: UV-Vis A465/A280 ratio and yellow crystals; format: binding; settings: copurified cofactor; FAD not modelled in the 4.7 A structure
T2 construct: gene MSMEG_2611; full-length, 461 residues, pET-22b(+) NdeI/XhoI, E. coli BL21(DE3); homodimer about 100 kDa
T2 sequence (A0QVL0 1-461): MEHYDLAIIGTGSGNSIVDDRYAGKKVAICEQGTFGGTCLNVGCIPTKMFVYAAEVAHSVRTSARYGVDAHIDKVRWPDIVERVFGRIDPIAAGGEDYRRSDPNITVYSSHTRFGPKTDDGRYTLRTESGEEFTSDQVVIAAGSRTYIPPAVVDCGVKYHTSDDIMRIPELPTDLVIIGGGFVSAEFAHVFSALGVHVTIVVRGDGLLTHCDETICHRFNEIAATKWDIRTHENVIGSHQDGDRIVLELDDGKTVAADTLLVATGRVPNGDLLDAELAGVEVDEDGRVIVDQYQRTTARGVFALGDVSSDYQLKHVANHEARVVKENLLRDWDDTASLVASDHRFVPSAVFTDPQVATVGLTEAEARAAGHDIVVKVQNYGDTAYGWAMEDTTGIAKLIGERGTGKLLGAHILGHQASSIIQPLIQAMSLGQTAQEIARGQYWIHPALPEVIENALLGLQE

T1 sequence (C0ZY75 entry or part of it): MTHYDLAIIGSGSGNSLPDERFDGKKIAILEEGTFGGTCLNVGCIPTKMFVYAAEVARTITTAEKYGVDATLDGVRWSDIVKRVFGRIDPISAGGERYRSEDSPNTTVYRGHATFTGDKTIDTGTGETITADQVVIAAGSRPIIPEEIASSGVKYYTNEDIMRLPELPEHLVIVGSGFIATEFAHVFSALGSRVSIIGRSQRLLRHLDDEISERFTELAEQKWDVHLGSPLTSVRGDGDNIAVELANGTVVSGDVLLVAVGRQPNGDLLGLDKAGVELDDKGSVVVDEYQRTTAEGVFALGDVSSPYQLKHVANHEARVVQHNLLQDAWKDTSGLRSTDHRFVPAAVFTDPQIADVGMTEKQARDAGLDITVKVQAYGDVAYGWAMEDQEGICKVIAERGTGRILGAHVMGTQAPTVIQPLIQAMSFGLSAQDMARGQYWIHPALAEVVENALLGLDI

Cc1cc2nc3c(=O)[nH]c(=O)nc-3n(C[C@H](O)[C@H](O)[C@H](O)COP(=O)(O)OP(=O)(O)OC[C@H]3O[C@@H](n4cnc5c(N)ncnc54)[C@H](O)[C@@H]3O)c2cc1C [FAD]
X-ray crystal structure, 2.9 A [1]: In Mtr Re , both monomers show strong density for the FAD cofactor
UV-Vis A465/A280 ratio and yellow crystals [2]: support the presence of FAD in both proteins
